This assay deals with CEM cells HIV-1 protection, formazan growth assay. In words: NCI AIDS Antiviral Assay. To be noted: for pIC50: measured here: growth of uninfected CEM cells. The essentials:
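Five concentrations of each compound were applied to infected and uninfected human CEM cells. Protection from HIV-1 was judged from growth measured with a soluble formazan assay.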

This is an account of results in PubChem BioAssay AID179 (DTP/NCI, 2004).

Structures are written as SMILES. pEC50, pIC50: −log10 of the molar value. The source made the active and inactive calls.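 The calls were made as follows: active = compounds giving half or more protection of infected cells from virus-caused growth loss, again on retest; inactive = the rest.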 Where a SMILES comes first, the peptide text is derived from it. The star is where a group is joined. Boc = CC(C)(C)OC(=O)*; OtBu = CC(C)(C)O*

Consider `CC(/C=C/C=C/C=C/C=C/C=C/C(O)=C1/C(=O)C(CCC(=O)O)N(C)C1=O)=C\C(C)C(OC1CC(O)C(O)C(C)O1)C(C)C` (centres undefined), for which the result was inactive.

What is called pEC50 is the negative decadic logarithm of the EC50, by convention in mol/L. By pIC50 is commonly meant the IC50 on a negative log10 scale, so that one unit is a factor of ten. Low values mean a large IC50, high ones a small IC50. `NC(=O)N/N=C1\CCc2ccccc2C1`: the pEC50 is under 4.03 and the pIC50 was under 4.03.

Regarding `C[N+]1(CCNP(=S)(NCC[N+]2(C)Cc3c(ccc4c3OCO4)C3C2c2cc4c(cc2C[C@@H]3O)OCO4)NCC[N+]2(C)Cc3c(ccc4c3OCO4)C3C2c2cc4c(cc2C[C@@H]3O)OCO4)Cc2c(ccc3c2OCO3)C2C1c1cc3c(cc1C[C@H]2O)OCO3` (some centres undefined), the pEC50 is under 3.42 and the pIC50 was 5.33.

`O=C(CCN1CCN(c2ccccc2)CC1)N1CCc2c([nH]c3ccccc23)C1c1cccnc1` (centres undefined): the pEC50 was under 4.81 and the pIC50 was under 4.81.

`COc1cc(/C=C2/SC(c3ccccc3)N(c3cc(Cl)ccc3Cl)C2=O)cc(OC)c1OC` (centres undefined): the pEC50 is under 3.70 and the pIC50 is 4.15.

In the case of `CC1=CCN(C2CC(C)C(=O)N2)C1=O` (centres undefined), the outcome was inactive.

`CCNc1cc2oc(=O)cc(C)c2cc1C`: the pEC50 was under 4.48 and the pIC50 was under 4.48.

With `O=C(/C=C/c1ccccc1)NC1C=Nc2ccc(Cl)cc2NC1=O` (centres undefined), the pEC50 is under 3.70 and the pIC50 was 4.59.

Take `CN(C)CCNC(=O)c1cc([N+](=O)[O-])ccn1`: the pEC50 is under 3.70 and the pIC50 was 4.02.

As to `O=C(O)C1CSCN1` (centres undefined), the pEC50 is under 3.33 and the pIC50 was under 3.33.

As to `[O-][N+]1=NC(c2ccccc2)=C1c1ccccc1`, the pEC50 is under 4.30 and the pIC50 is under 4.30.

Turning to `O=S(=O)(O)NCC1OC2OC3C(CNS(=O)(=O)O)OC(OC4C(CNS(=O)(=O)O)OC(OC5C(CNS(=O)(=O)O)OC(OC6C(CNS(=O)(=O)O)OC(OC7C(CNS(=O)(=O)O)OC(OC8C(CNS(=O)(=O)O)OC(OC1C(OS(=O)(=O)O)C2OS(=O)(=O)O)C(OS(=O)(=O)O)C8OS(=O)(=O)O)C(OS(=O)(=O)O)C7OS(=O)(=O)O)C(OS(=O)(=O)O)C6OS(=O)(=O)O)C(OS(=O)(=O)O)C5OS(=O)(=O)O)C(OS(=O)(=O)O)C4OS(=O)(=O)O)C(OS(=O)(=O)O)C3OS(=O)(=O)O` (centres undefined), the pEC50 was under 4.30 and the pIC50 was under 4.30.

Take `CCOC(=O)COC(=O)c1cc(C(=CCC[C@H]2CC[C@@]3(C)[C@@H](CC[C@@H]4[C@@H]3CC[C@]3(C)[C@@H](C(C)CCCC(C)C)CC[C@@H]43)C2)c2cc(Cl)c(OCC(=O)OCC)c(C(=O)OCC(=O)OCC)c2)cc(Cl)c1OCC(=O)OCC` (some centres undefined): the pEC50 was under 3.70 and the pIC50 is under 3.70.

In the case of `C/C(CC(=O)Nc1cccc(Cl)c1C)=N\NC(N)=S`, the pEC50 was under 3.92 and the pIC50 was under 3.92.

In the case of `N=C(N)SCCc1cn2ccccc2n1`, the pEC50 is under 3.07 and the pIC50 is 4.37.

With `NCCCCNC(c1ccccc1)C(O)c1ccccc1` (centres undefined), the result was inactive.

Turning to `CN1Cc2cc3c(cc2-c2ccccc21)OCO3`, the pEC50 is 3.57 and the pIC50 was 3.55.

Regarding `COC(=O)CN(CC(=O)OC)S(=O)(=O)c1ccc(-c2c3nc(c(-c4ccc(S(=O)(=O)N(CC(=O)OC)CC(=O)OC)cc4)c4ccc([nH]4)c(-c4ccc(S(=O)(=O)N(CC(=O)OC)CC(=O)OC)cc4)c4nc(c(-c5ccc(S(=O)(=O)N(CC(=O)OC)CC(=O)OC)cc5)c5ccc2[nH]5)C=C4)C=C3)cc1`, the pEC50 was under 4.00 and the pIC50 is under 4.00.

For `CCCCN(CCCC)C(=O)C(=O)CC(=O)/C=C/c1ccccc1`, the pEC50 is under 3.54 and the pIC50 is under 3.54.

Regarding `CC(=O)Nc1ccc2c(c1)Cc1cc(N(CCO)CCO)ccc1-2`, the pEC50 was under 3.70 and the pIC50 was 4.13.

As for `CCCCCCCC(=O)OCC1OC(n2cc(F)c(=O)[nH]c2=O)C(NC(=O)OCc2ccccc2)C(O)C1O` (centres undefined), the pEC50 is under 4.19 and the pIC50 was 4.25.

With `Cc1ccc2nc(NC(=O)C(=O)CC(=O)c3cccc4ccccc34)sc2c1`, the pEC50 is under 4.47 and the negative-log IC50 (pIC50) was under 4.47.

Regarding `COc1cc2c(cc1OC)C(=O)/C(=C/c1ccc(N(C)C)cc1)CC2`, the pEC50 is under 3.81 and the pIC50 is 3.96.

In the case of `CN1N=C(c2ccccc2)c2cc(Cl)ccc2N=C1N/N=C/c1ccc(N(C)C)cc1`, the pEC50 was under 3.70 and the pIC50 is under 3.70.

`CC1Nc2ccccc2NC1C=C(C#N)C#N` (centres undefined): the pEC50 is under 4.35 and the pIC50 is 5.17.

Regarding `Cc1cccc2c1C/C(=C1\CCc3c(C)cccc31)C2=O`, the result was inactive.

As for `O=c1sc(Nc2ccc3ccccc3c2Cl)nc2ccccc12`, the pEC50 is under 3.70 and the pIC50 was under 3.70.

For the compound `COC(=O)n1c(C)c(C=O)c2ccc(OC)cc21`, the pEC50 was under 3.70 and the pIC50 is 4.46.

On to `CCOc1ccc(C(=O)CCN2CCC3CCC(C3)C2)cc1` (centres undefined), for which the pEC50 was under 3.70 and the pIC50 is 4.86.

For the compound `O=c1c(Sc2c(O)c3ccccc3c3ccccc3c2=O)c(O)c2ccccc2c2ccccc12`, the outcome was inactive.

As to `O=c1[nH]cnc2c1ncn2[C@@H]1C[C@@H]1CO`, the pEC50 is under 3.70 and the pIC50 is under 3.70.

Take `O=C1CSC(c2c[nH]c3ccccc23)N1c1ccc(Cl)cc1Cl` (centres undefined): the pEC50 is under 3.59 and the pIC50 is 4.25.

Regarding `O=C(CCCn1cnc([N+](=O)[O-])n1)NCCn1ccnc1[N+](=O)[O-]`, the pEC50 is under 3.70 and the pIC50 was under 3.70.

For the compound `Cc1cc(N(CCC#N)CCC#N)ccc1/C=C(\NC(=O)/C=C/c1ccccc1)NC(=O)Nc1ccccc1C`, the pEC50 is under 5.01 and the pIC50 is under 5.01.

For `COc1ccc2c(c1)C(=O)OCCC2`, the pEC50 is under 3.70 and the pIC50 is under 3.70.

Consider `CCOC(=O)/C(=C\c1cccc(C(F)(F)F)c1)[Se]c1ccccc1`, for which the pEC50 is under 4.74 and the negative logarithm of the IC50 (pIC50) is under 4.74.

As to `CC(=O)[O-].CCCCCCC/C=N/[N-]C(=O)c1ccncc1.[Co+2].[OH3+].[OH3+].[OH3+].[OH3+]`, the pEC50 is under 3.70 and the pIC50 was 3.94.

For the compound `COc1ccccc1C(=O)NO`, the pEC50 was under 3.70 and the pIC50 was under 3.70.

On to `O=S(=O)(O)CC(O)CSSCC(O)CS(=O)(=O)O` (centres undefined), for which the pEC50 was under 3.70 and the negative-log IC50 (pIC50) is under 3.70.

For `Oc1ccc(/C=C/c2ccc(O)c(O)c2)cc1O`, the pEC50 was under 3.70 and the pIC50 was 4.84.

For the compound `O=[N+]([O-])c1ccc(-c2csc(=[N+]3CCCCC3)s2)cc1`, the outcome was inactive.

In the case of `CC1=NC(C)CNC(C)(C)CC(C)=NC(C)CNC(C)(C)C1` (centres undefined), the pEC50 was under 3.70 and the pIC50 was under 3.70.

Regarding `CC(=O)OCC1OC(OC2C(CSC3OC(COC(C)=O)C(OC(C)=O)C(OC(C)=O)C3OC(C)=O)OC(OC(C)=O)C(OC(C)=O)C2OC(C)=O)C(OC(C)=O)C(OC(C)=O)C1OC(C)=O` (centres undefined), the pEC50 is under 4.44 and the pIC50 was under 4.44.

Regarding `O=C(O)c1ccccc1-c1c2cc(I)c(=O)c(I)c-2oc2c(I)c(O)c(I)cc12`, the pEC50 is under 4.23 and the pIC50 was 4.97.

Consider `Cc1cccc2c1C(=O)[C@](C)([C@]1(C)Nc3cccc(C)c3C1=O)N2`, for which the pEC50 is under 3.70 and the pIC50 was 4.76.

Regarding `CCOC(=O)[C@H]1[C@@H]2CCCC[C@@]23C(Cl)(Cl)[C@@]32C[C@]1(C(=O)OCC)CCC(=O)O2`, the outcome was inactive.

Regarding `FC1(F)SC2CCCCCCCCCCC2C1(F)F` (centres undefined), the pEC50 is under 3.70 and the pIC50 was 4.04.

As for `Cc1ccc(S(=O)(=O)N2CCSCCSCCSCCN(S(=O)(=O)c3ccc(C)cc3)CC2)cc1`, the pEC50 was under 4.90 and the pIC50 was under 4.90.

As for `C/C=C1/C=CC2c3[nH]c4ccccc4c3CCN2C1` (centres undefined), the pEC50 is under 3.84 and the pIC50 is 4.03.

Turning to `CCC1(CC(=O)N(C)C)CCCN(C(=O)Oc2ccccc2)C1` (centres undefined), the pEC50 is under 4.50 and the pIC50 is under 4.50.

`CCCC(=O)n1[nH]c(=O)n(C(C)(C)C)c1=O`: the pEC50 is under 3.70 and the pIC50 is under 3.70.

With `COc1ccc(/C(O)=C/c2nc3ccccc3n2C)cc1`, the pEC50 was under 3.75 and the pIC50 is 4.13.

For the compound `Cc1cc(O)c(C(C)C)cc1NC(=O)Nc1cccc2ccccc12`, the pEC50 is under 4.25 and the pIC50 was 4.39.

Regarding `CCCCC12C3CC4C5C(C)/C(=C6\OC(=O)C(C)=C6OC)OC5(O3)C1CCN42` (centres undefined), the pEC50 was under 4.30 and the pIC50 is under 4.30.

Take `O=c1oc(C(C(F)(F)F)C(F)(F)F)nc2ccccc12`: the pEC50 was under 3.70 and the pIC50 was under 3.70.

Turning to `CC(C)(C)OC(=O)CC(NC(=O)OC(C)(C)C)C(=O)NC(Cc1ccccc1)C(N)=O` (centres undefined) (Boc-Asp(OtBu)-Phe-NH2; configuration not given here), the pEC50 was 3.79 and the pIC50 is under 3.70.

For the compound `COc1c2c(cc3c1C(=O)Cc1ccc4c(c1CN(C)CC3)OCO4)OCO2`, the pEC50 was under 4.45 and the pIC50 is under 4.45.

Take `CC(NC(=O)C(=O)N/N=C1\CC(c2ccccc2)Sc2ccccc21)c1ccccc1` (centres undefined): the outcome was inactive.

Turning to `COc1cccc(CN2CCN(/N=C/c3c4c(O)c5c(O)c(C)c6c(c5c3O)C(=O)C(C)(O/C=C/C(OC)C(C)C(OC(C)=O)C(C)C(O)C(C)C(O)C(C)/C=C/C=C(C)C(=O)N4)O6)CC2)c1` (centres undefined), the pEC50 is under 3.70 and the pIC50 is 5.18.

Regarding `N#CCC(=O)N/N=C\c1ccc2c(c1)OCO2`, the pEC50 was under 3.70 and the pIC50 was under 3.70.

For the compound `C=C1C(=O)C23OC2C1CCC(=O)C1(C)CC[C@H](OC(C)=O)C(C)(C)[C@H]1CC3=O` (some centres undefined), the pEC50 is under 3.76 and the pIC50 was 5.64.

In the case of `COC(=O)c1sc2c(SC#N)c3ccccn3c2c1C`, the result was inactive.

Regarding `C/C1=C/C(=O)O[C@@H]2C[C@@H](CC[C@H](C)/C=C\C=C\CC1)O[C@@](O)([C@@H]1CSC(=O)N1)C2`, the pEC50 is under 5.70 and the pIC50 is 6.44.

With `C/C=C/[C@@H](C(=O)OC)N1C(=O)c2ccccc2[C@H]1O`, the pEC50 is under 3.70 and the pIC50 is under 3.70.
